From BigSolDB 2.1

C[N+](C)(C)CC(=O)[O-]
Conditions	solubility (mole fraction)
in ethanol, 282.95 K	0.0264
in ethanol, 288.15 K	0.0298
in ethanol, 293.65 K	0.0336
in ethanol, 298.45 K	0.0372
in ethanol, 303.05 K	0.041
in isopropanol, 283.45 K	0.00458
in isopropanol, 288.65 K	0.0054
in isopropanol, 293.15 K	0.00622
in isopropanol, 298.45 K	0.0071
in isopropanol, 303.35 K	0.00823
in methanol, 283.15 K	0.117
in methanol, 288.15 K	0.121
in methanol, 293.55 K	0.126
in methanol, 298.25 K	0.131
in methanol, 303.2 K	0.136
in n-butanol, 283.45 K	0.00812
in n-butanol, 288.7 K	0.00964
in n-butanol, 293.05 K	0.0109
in n-butanol, 298.35 K	0.0125
in n-butanol, 302.9 K	0.0142
in n-propanol, 282.85 K	0.0134
in n-propanol, 288.15 K	0.0154
in n-propanol, 293.55 K	0.0177
in n-propanol, 298.23 K	0.02
in n-propanol, 303.45 K	0.0225
in water, 283.15 K	0.184
in water, 288.25 K	0.189
in water, 293.2 K	0.194
in water, 298.35 K	0.2
in water, 303.25 K	0.206
